The source of these data is ChEMBL document CHEMBL1125986, “()-2-amino-2-thiazoline-4-ethanoic acid; a novel, specific GABAA receptor agonist” (Bioorg Med Chem Lett, 1991).

The structures appear in SMILES notation.

The target in assay [1] is GABA-A receptor; anion channel. Kind of assay: Effective concentration for stimulation of [3H]diazepam binding to rat cortical membranes. The assay is classed as functional, cell membranes, Membrane.
The species named for assay [2] is Rattus norvegicus. The assay can be described thus: Tested for inhibition of CA1 population spike in rat hippocampal slice by electrophysiological experiment. Format: functional. To be noted: Hippocampus.
Assay [3] deals with GABA-A receptor; anion channel (Rattus norvegicus) (UniProt O09028+P15431+P18506+P18508+P19969+P20236+P23574+P23576+P28471+P28473+P30191+P62813+P63079+P63138+Q91ZM7+Q9ES14). The assay can be described thus: Enhanced [3H]benzodiazepine binding in rat cortical membranes at 100 uM. Format: cell membranes.
Assay [4] has as its target GABA-A receptor; anion channel. The assay can be described thus: Inhibition of [3H]-GABA binding to GABA-A receptor in rat cerebral cortex homogenates. Format: tissue-based.

On to `O=C(O)C1=CCNCC1` [ISOGUVACINE], for which the concentration giving a half-maximal response (EC50) was 3.1 µM in assay [1] and 13 µM in assay [2]. Moreover, the Activity in assay [3] stood at 156%. Also, the half-inhibitory concentration (IC50) in assay [4] was 0.49 µM.
For `NC1=NC(CC(=O)O)CS1` (centres undefined) the same measures were 3.4 µM, 28.3 µM, 142% and 0.5 µM.
As to `Oc1noc2c1CCNC2` [GABOXADOL], a half-maximal response in assay [2] (EC50) required 55 µM.

What is called EC50 is the concentration that produces a half-maximal response. High values mean weaker potency, low ones greater potency. Broadly, the IC50 is the concentration that inhibits the measured activity by half.
